# Assay results as given in US20180228703A1, “Improved Hyaluronan and Modified-Hyaluronan in Biomedical Applications” (CHL Industries, LLC, priority 2015, published 2018).
# Assays:
# [1] = Viscosity of HA solution on storage at 25, 40 and 50° C. (cone-plate viscometer); type: physicochemical
# Procedure: Viscosity measurements are made of vials of sterile, injectable grade, high molecular weight 1% sodium hyaluronate solution (Hycoat® Sterile Wound Management Solution; Hyaluronate Sodium, Solution 20 mg/2 mL; avg. molecular weight 1.0-1.3 million Daltons; supplied by Hymed Group, Bethlehem, Pa.) containing Chlorophyllin Copper Complex Sodium at varying concentrations as summarized in the table below. Preferably, dissolved and atmospheric oxygen is purged from the HA solution by displacing the headspace in the vial with Nitrogen or Argon.
# Sodium copper chlorophyllin complex (disodium copper isochlorin e4 minimum content of 25% based on dry weight of complex; supplied by Frontier Scientific, Logan, Utah) is added to the 1% HA test solutions (i.e., 2 mL Hycoat® described above) as follows: 1 gram of CHLcu is added to 99 grams of distilled water, heated to 50° C., mixed for 30 minutes with a magnetic stirrer, and then cooled to room temperature. The specified concentration of CHLCu solution is drawn into a syringe through a 0.45u syringe filter and added to the sterile vial of 1% HA solution under a laminar flow hood. For example, in order to prepare a 1% HA solution containing 100 ppm of CHLcu in the final HA solution 20.5 microliters (0.0205 mL) of the 1% CHLCu solution is injected into the vial of 2 mL of sterile HA solution.
# Each of the 2 mL test samples (with and without CHLcu) are stored at 25° C., 40° C., and 50° C. for up to eight weeks. Viscosity measurements are taken at baseline and at 1, 2, 4, 6 and 8 weeks after storage at the three temperatures.
# 0.5 mL of the test sample is then withdrawn from each vial, causing a temporary shear in the sample viscosity.
# All samples (1% HA+CHLCu) are equilibrated prior to viscosity measurement. […]
# Each withdrawn sample is allowed to further equilibrate for five additional minutes before taking viscosity measurements. Viscosity is preferably measured at 2 rpm with a cone-plate viscometer (e.g., Brookfield LVD-II Pro Cone/Plate viscometer; CPE-51 spindle from Brookfield Engineering Laboratories, Inc. Middleboro, Mass.).
# [2] = tested on: Vitrase injectable sterile hyaluronidase; assay: Anti-hyaluronidase activity: viscosity of 1% HA before and after addition of Vitrase; type: biochemical, Ovine
# Procedure: In order to assess the anti-hyaluronidase activity of the CHLcu stabilizing agent, 40 units (0.2 mL) of Vitrase® injectable sterile hyaluronidase solution (Ovine, 200 USP Units/mL) is added to each of four 1% HA samples that have been stored at 25° C. for six weeks with (a) no CHLCu; (b) 50 ppm CHLCu; (c) 100 ppm CHLCu; and (d) 250 ppm CHLCu). Anti-hyaluronidase activity is measured by comparing the viscosity of the test samples before and after addition of Vitrase®.
# A product containing 1% HA (Hycoat® Sterile Wound Management Solution; Hyaluronate Sodium, Solution 20 mg/2 mL; average molecular weight 1.0-1.3 million Daltons) and 100 mcg/mL CHLCu was combined with 40 units (0.2 mL) of Vitrase® injectable sterile hyaluronidase solution (Ovine, 200 USP Units/mL) and stored at 25° C. for 30 minutes. The viscosity of the combined solution of sodium HA, CHLCu, and Vitrase® composition was seen to drop from 450.6 cps to 161.8 cps, or 35.9% of initial viscosity.
# By way of comparison, the viscosity of the same 1% HA solution without CHLCu was measured, and then exposed to 40 units of the same Vitrase. After 30 minutes of Vitrase® contact, the 1% HA solution underwent a viscosity change from 516.2 cps to 43.69 cps or only 8.5% of the initial HA viscosity.
# [3] = tested on: adult human dermal fibroblasts; assay: Cell proliferation, sulforhodamine B staining; type: cell-based; conditions: 4 days, vs water
# Procedure: Adult human dermal fibroblasts (Cell Applications, San Diego, Calif.) were plated in DMEM without phenyl red supplemented with 5% FBS and 1% penicillin/streptomycin (PS) at a concentration of 8,000 cells/well. Test materials, which were stored at 4° C. until dissolved at 20 mg/ml in ddH2O, were added the next day on attached exponentially-growing cells. Negative and positive controls were, respectively, type I sterile water and L-Ascorbic acid 2-phosphate sesquimagnesium salt (“MAP”) (Sigma-Aldrich).
# (§1) Cells proliferation was quantified by staining cytoskeletons with sulforhodamine B according to the colorimetric method of Voigt, “Sulforhodamine B assay and chemosensitivity,” Methods Mol. Med. Vol. 110, pp. 39-48 (2005). Statistical significance was assessed with two-tailed paired Student test. Deviations of >15% as compared to the negative water control with p values below 0.05 were considered statistically significant.
# [4] = tested on: COL5A1; assay: Collagen gene expression in adult human dermal fibroblasts, PCR array; type: cell-based; conditions: HDF, 24 hours
# Procedure: (§2) Using adult human dermal fibroblasts (Cell Applications, San Diego, Calif.) (“HDF”), the effectiveness of three chlorophyllin materials—Isochlorin E4 Disodium (“E4”); Sodium Copper Chlorophyllin C3999 (“C3999”); and Chlorophyllin Sodium Copper Salt (“CSCS”)—are assessed for the ability to positively effect the differential expression of at least one of the following three collagen genes—COL15A1; COL1A1; and COL5A1. After cell viability tests, the effect of 2 μg/ml E4, 10 μg/ml CSCS, and 10 μg/ml C3999 on adult human dermal fibroblasts (100,000 cells/well) on gene expression were evaluated using PCR arrays.
# (§3) HDF cells were incubated for 24 hours in a 12-well plate at a concentration of 100,000 cells/well in Dulbecco's Modified Eagle Medium (DMEM) with 5% Fetal Bovine Serum (FBS). The three test materials were added to the wells, incubated for 24 hours. […] RNA was extracted and purified with NucleoSpin RNA II kit from Machery-Nagel (Bethlehem, Pa.). Purified total RNA was analyzed at 230 nm, 260 nm and 280 nm with Agilent HP-8452A diode array spectrophotometer. The concentration of RNA was equalized across the samples and the expression of genes of interest was measured by real-time quantitative PCR with BioRad iCycler iQ Detection System using Human Extracellular Matrix & Adhesion Molecules PCR array PAHS-13ZA from Qiagen (formerly SA Biosciences, Frederick, Md.). Reactions were performed with 1st strand synthesis kit, SYBR Green master mix and PCR setup parameters from Qiagen. Results were normalized to housekeeping genes with the RT2 Profiler PCR Array Data Analysis version 3.5 software
# (§4) Genes were considered differentially expressed if the level of expression was detected in less than 30 cycles, and modulation was 1.5 fold or higher.
# [5] = tested on: COL1A1; assay: as above; type: cell-based; conditions: HDF, 24 hours
# Procedure: as §2, §3, §4
# [6] = tested on: COL15A1; assay: as above; type: cell-based; conditions: HDF, 24 hours
# Procedure: as §2, §3, §4
# [7] = tested on: non-soluble type I collagen; assay: Non-soluble type I collagen production by HDF, direct ELISA; type: cell-based, human; conditions: for % CTRL (COL-I): 4 days, vs water; for % CTRL (Cell # Standardized): non-soluble collagen I standardized to cell numbers; for Cell # Standardized: repeat testing, type I collagen deposition, H2O = 100
# Procedure: Adult human dermal fibroblasts (Cell Applications, San Diego, Calif.) were plated in DMEM without phenyl red supplemented with 5% FBS and 1% penicillin/streptomycin (PS) at a concentration of 8,000 cells/well. Test materials, which were stored at 4° C. until dissolved at 20 mg/ml in ddH2O, were added the next day on attached exponentially-growing cells.
# Cells were then fixed with 2.5% trichloroacetic acid (TCA) at 4° C., dried overnight, and tested for non-soluble type I collagen, using direct ELISA.
# as §1
# [8] = tested on: HDF; assay: Long term HDF viability, MTT assay; type: cell-based, human; conditions: long-term incubation, 1 μg/mL
# Procedure: The effect of long-term incubation of HDF with E4 is assessed by MTT, a colorimetric assay for assessing cell metabolic activity.
# [9] = 1% HA (Hycoat) + 100 mcg/mL CHLCu, 40 units Vitrase, 25° C., 30 minutes
Substance,% CTRL (Cell #) ([3]; 5 μg/mL) [% CTRL],% CTRL (Cell #) ([3]; 10 μg/mL) [% CTRL],% CTRL (Cell #) ([3]; 20 μg/mL) [% CTRL],COL5A1 expression (modulation) ([4]; 10 μg/ml) [fold],COL1A1 expression (modulation) ([5]; 10 μg/ml) [fold],COL15A1 expression (modulation) ([6]; 10 μg/ml) [fold],% CTRL (COL-I) ([7]; 5 μg/mL) [% CTRL],% CTRL (COL-I) ([7]; 10 μg/mL) [% CTRL],% CTRL (COL-I) ([7]; 20 μg/mL) [% CTRL],% CTRL (Cell # Standardized) ([7]; 5 μg/mL) [% CTRL],% CTRL (Cell # Standardized) ([7]; 10 μg/mL) [% CTRL],% CTRL (Cell # Standardized) ([7]; 20 μg/mL) [% CTRL],Cell # Standardized ([7]; 0.25 ug/ml),Cell # Standardized ([7]; 1 μg/ml),Cell # Standardized ([7]; 2 μg/ml),Cell # Standardized ([7]; 5 μg/ml),further results
Chlorophyllin Copper Complex Sodium [CHLcu],,,,,,,,,,,,,,,,,"viscosity change compared with samples not containing CHLCu ([1]; 1% HA, 25, 40, 50° C., up to eight weeks): less of a viscosity change; viscosity deviation from baseline after 8 weeks of storage ([1]; HA product stored with CHLcu about 50 to about 250 ppm, 40° C.): ≤ 5%; viscosity increase ([1]; HA product stored with CHLcu about 50 to about 250 ppm, 40° C., about 8 weeks): up to 25%; viscosity before Vitrase ([2]; 1% HA (Hycoat) + 100 mcg/mL CHLCu): 450.6 cps; % of initial viscosity after Vitrase [2, 9]: 35.9%; viscosity after Vitrase [2, 9]: 161.8 cps; loss of viscosity when challenged with hyaluronidase ([2]; product containing HA (or modified HA) and CHLCu): reduced loss of viscosity"
Chlorophyllin Sodium Copper Salt [CSCS],95,87,88,1.7,1.5,1.2,95,85,84,99,96,94,97,96,114,110,
Isochlorin E4 Disodium,81,80,,,,,94,90,,115,111,,88,89,113,101,% CTRL (Cell #) ([3]; 2 μg/mL): 89 % CTRL; COL5A1 expression (modulation) ([4]; 2 μg/ml): 1.5 fold; COL1A1 expression (modulation) ([5]; 2 μg/ml): 1.2 fold; COL15A1 expression (modulation) ([6]; 2 μg/ml): 1.2 fold; HDF cell metabolic activity (MTT) [8]: unaffected; % CTRL (COL-I) ([7]; 2 μg/mL): 120 % CTRL; % CTRL (Cell # Standardized) ([7]; 2 μg/mL): 133 % CTRL
"L-Ascorbic acid 2-phosphate sesquimagnesium salt [MAP, reference compound]",,,,,,,,,,,,,,,,,% CTRL (Cell #) ([3]; 50 μg/mL): 111 % CTRL; % CTRL (Cell #) ([3]; 100 μg/mL): 100 % CTRL
Sodium Copper Chlorophyllin C3999,95,92,83,1.3,1.2,1.5,97,110,121,101,118,145,,,,,
